Assay results taken from patent publication US9113629B2, “4-amino-6-(4-substituted-phenyl)-picolinates and 6-amino-2-(4-substituted-phenyl)-pyrimidine-4-carboxylates and their use as herbicides” (DOW AGROSCIENCES LLC, priority 2013, dated 2015).
Like-named read-outs stand apart in the source and are kept apart here.

Experiments:
[1] = test system: Key Broadleaf Weed and Crop Species; test: Post-emergent Test II herbicidal activity (Table 5); type: in vivo; conditions: post-emergence, 336 h, 14 days after application; for pest or weed control at 70 g/ha: application rate 70 g ai/ha; for pest or weed control at 140 g/ha: application rate 140 g ai/ha
Procedure, shortened: (§1)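 Foliar application at 187 L/ha to greenhouse-grown seedlings (first or second true leaf); subirrigation thereafter. Visual 0–100% injury at 14 d relative to untreated plants.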

[2] = test system: Key Grass and Sedge Weeds as well as Grass Crops; test: Post-emergent Test II herbicidal activity (Table 6); type: in vivo; conditions: post-emergence, 336 h; for pest or weed control at 70 g/ha: 70 g ai/ha; for pest or weed control at 140 g/ha: 140 g ai/ha
Procedure, shortened: as §1

[3] = ABUTH: velvetleaf (Abutilon theophrasti), read-out: Visual Growth Reduction (%) 14 Days After Application, ABUTH
[4] = AMARE: redroot pigweed (Amaranthus retroflexus), read-out: Visual Growth Reduction (%) 14 Days After Application, AMARE
[5] = BRSNN: oilseed-rape, canola (Brassica napus), read-out: Visual Growth Reduction (%) 14 Days After Application, BRSNN
[6] = CHEAL: lambsquarters (Chenopodium album), read-out: Visual Growth Reduction (%) 14 Days After Application, CHEAL
[7] = EPHHL: wild poinsettia (Euphorbia heterophylla), read-out: Visual Growth Reduction (%) 14 Days After Application, EPHHL
[8] = HELAN: sunflower (Helianthus annuus), read-out: Visual Growth Reduction (%) 14 Days After Application, HELAN
[9] = VIOTR: wild pansy (Viola tricolor), read-out: Visual Growth Reduction (%) 14 Days After Application, VIOTR
[10] = CYPES: yellow nutsedge (Cyperus esculentus), read-out: Visual Growth Reduction (%) 14 Days After Application, CYPES
[11] = DIGSA: crabgrass (Digitaria sanguinalis), read-out: Visual Growth Reduction (%) 14 Days After Application, DIGSA
[12] = ECHCG: barnyardgrass (Echinochloa crus-galli), read-out: Visual Growth Reduction (%) 14 Days After Application, ECHCG
[13] = ORYSA: rice (Oryza sativa), crop, read-out: Visual Growth Reduction (%) 14 Days After Application, ORYSA
[14] = SETFA: giant foxtail (Setaria faberi), read-out: Visual Growth Reduction (%) 14 Days After Application, SETFA
[15] = SORVU: grain sorghum (Sorghum vulgare), read-out: Visual Growth Reduction (%) 14 Days After Application, SORVU
[16] = TRZSS (wheat, Triticum aestivum), crop, read-out: Visual Growth Reduction (%) 14 Days After Application, TRZSS
[17] = ZEAMX: maize, corn (Zea mays), crop, read-out: Visual Growth Reduction (%) 14 Days After Application, ZEAMX

For `C#Cc1ccc(-c2nc(C(=O)OC)c(Cl)c(N)c2F)c(F)c1F` [Compound 22], which pest or weed control at 70 g/ha [1, 3] is on record?
The pest or weed control at 70 g/ha was 0 to 29%.

And the pest or weed control at 140 g/ha [1, 3]?
Its pest or weed control at 140 g/ha is 0 to 29%.

What about the pest or weed control at 70 g/ha [1, 4] of the same compound?
Its pest or weed control at 70 g/ha is 0 to 29%.

What about the pest or weed control at 140 g/ha [1, 4] of the same compound?
Its pest or weed control at 140 g/ha is 0 to 29%.

And the pest or weed control at 70 g/ha [1, 5]?
The pest or weed control at 70 g/ha was 0 to 29%.

And the pest or weed control at 140 g/ha [1, 5]?
Its pest or weed control at 140 g/ha is 60 to 74%.

What about the pest or weed control at 70 g/ha [1, 6] of the same compound?
Its pest or weed control at 70 g/ha is 45 to 59%.

What about the pest or weed control at 140 g/ha [1, 6] of the same compound?
The pest or weed control at 140 g/ha was 75 to 84%.

What about the pest or weed control at 70 g/ha [1, 7] of the same compound?
The pest or weed control at 70 g/ha was 0 to 29%.

And the pest or weed control at 140 g/ha [1, 7]?
Its pest or weed control at 140 g/ha is 95 to 100%.

And the pest or weed control at 70 g/ha [1, 8]?
The pest or weed control at 70 g/ha was 45 to 59%.

What about the pest or weed control at 140 g/ha [1, 8] of the same compound?
The pest or weed control at 140 g/ha was 75 to 84%.

And the pest or weed control at 70 g/ha [1, 9]?
The pest or weed control at 70 g/ha was 0 to 29%.

And the pest or weed control at 140 g/ha [1, 9]?
The pest or weed control at 140 g/ha was 0 to 29%.

And the melting point?
The melting point was 190 to 192 °C.

What about the pest or weed control at 70 g/ha [2, 10] of the same compound?
Its pest or weed control at 70 g/ha is 0 to 29%.

What about the pest or weed control at 140 g/ha [2, 10] of the same compound?
The pest or weed control at 140 g/ha was 0 to 29%.

What about the pest or weed control at 70 g/ha [2, 11] of the same compound?
Its pest or weed control at 70 g/ha is 0 to 29%.

What about the pest or weed control at 140 g/ha [2, 11] of the same compound?
Its pest or weed control at 140 g/ha is 0 to 29%.

And the pest or weed control at 70 g/ha [2, 12]?
The pest or weed control at 70 g/ha was 0 to 29%.

And the pest or weed control at 140 g/ha [2, 12]?
The pest or weed control at 140 g/ha was 45 to 59%.

And the pest or weed control at 70 g/ha [2, 13]?
Its pest or weed control at 70 g/ha is 0 to 29%.

What about the pest or weed control at 140 g/ha [2, 13] of the same compound?
The pest or weed control at 140 g/ha was 0 to 29%.

What about the pest or weed control at 70 g/ha [2, 14] of the same compound?
The pest or weed control at 70 g/ha was 0 to 29%.

And the pest or weed control at 140 g/ha [2, 14]?
The pest or weed control at 140 g/ha was 0 to 29%.

What about the pest or weed control at 70 g/ha [2, 15] of the same compound?
The pest or weed control at 70 g/ha was 0 to 29%.

What about the pest or weed control at 140 g/ha [2, 15] of the same compound?
The pest or weed control at 140 g/ha was 0 to 29%.

What about the pest or weed control at 70 g/ha [2, 16] of the same compound?
The pest or weed control at 70 g/ha was 0 to 29%.

What about the pest or weed control at 140 g/ha [2, 16] of the same compound?
The pest or weed control at 140 g/ha was 0 to 29%.

And the pest or weed control at 70 g/ha [2, 17]?
The pest or weed control at 70 g/ha was 0 to 29%.

What about the pest or weed control at 140 g/ha [2, 17] of the same compound?
Its pest or weed control at 140 g/ha is 45 to 59%.

Which results are given for `COC(=O)c1nc(-c2ccc(I)c(F)c2F)nc(N)c1OC` [Compound 24, methyl 6-amino-2-(2,3-difluoro-4-iodophenyl)-5-methoxypyrimidine-4-carboxylate]?
pest or weed control at 70 g/ha [1, 3]: 95 to 100%; pest or weed control at 140 g/ha [1, 3]: 95 to 100%; pest or weed control at 70 g/ha [1, 4]: 75 to 84%; pest or weed control at 140 g/ha [1, 4]: 85 to 94%; pest or weed control at 70 g/ha [1, 5]: 95 to 100%; pest or weed control at 140 g/ha [1, 5]: 95 to 100%; pest or weed control at 70 g/ha [1, 6]: 95 to 100%; pest or weed control at 140 g/ha [1, 6]: 95 to 100%; pest or weed control at 70 g/ha [1, 7]: 95 to 100%; pest or weed control at 140 g/ha [1, 7]: 95 to 100%; pest or weed control at 70 g/ha [1, 8]: 85 to 94%; pest or weed control at 140 g/ha [1, 8]: 95 to 100%; pest or weed control at 70 g/ha [1, 9]: 45 to 59%; pest or weed control at 140 g/ha [1, 9]: 95 to 100%; melting point: 169 to 170 °C; pest or weed control at 70 g/ha [2, 10]: 95 to 100%; pest or weed control at 140 g/ha [2, 10]: 95 to 100%; pest or weed control at 70 g/ha [2, 11]: 45 to 59%; pest or weed control at 140 g/ha [2, 11]: 60 to 74%; pest or weed control at 70 g/ha [2, 12]: 95 to 100%; pest or weed control at 140 g/ha [2, 12]: 95 to 100%; pest or weed control at 70 g/ha [2, 13]: 0 to 29%; pest or weed control at 140 g/ha [2, 13]: 0 to 29%; pest or weed control at 70 g/ha [2, 14]: 60 to 74%; pest or weed control at 140 g/ha [2, 14]: 85 to 94%; pest or weed control at 70 g/ha [2, 15]: 85 to 94%; pest or weed control at 140 g/ha [2, 15]: 85 to 94%; pest or weed control at 70 g/ha [2, 16]: 0 to 29%; pest or weed control at 140 g/ha [2, 16]: 30 to 44%; pest or weed control at 70 g/ha [2, 17]: 95 to 100%; pest or weed control at 140 g/ha [2, 17]: 95 to 100%
